Where two headings read alike, the source gives them in different places.
What was measured:
intracellular MRSA = type: cell-based, Staphylococcus aureus; settings: for %GFP+ rep 1 / z-scoreMRSA+ rep 1: replicate 1; for %GFP+ rep 2 / z-scoreMRSA+ rep 2: replicate 2; for %GFP+ rep 3 / z-scoreMRSA+ rep 3: replicate 3; for z-scoreMRSA+ mean: mean of 3 replicates; for %GFP+ rep 1: test concentration or dose not given here; for %GFP+ rep 2: test concentration or dose not given here; for %GFP+ rep 3: test concentration or dose not given here; for effect: test concentration or dose not given here; for z-scoreMRSA+ mean: test concentration or dose not given here; for z-scoreMRSA+ rep 1: test concentration or dose not given here; for z-scoreMRSA+ rep 2: test concentration or dose not given here; for z-scoreMRSA+ rep 3: test concentration or dose not given here
Procedure, shortened: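 Values are z-scores: GFP-positive HeLa percentage and event count per well against plate statistics, minus the mean DMSO z-score. Wells deviating two-fold from controls were left out of plate means. Infection was at a mean MOI of 6.8, with an overnight compound exposure.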

HeLa cells = experiment: Compound screen by flow cytometry: HeLa cell count as surrogate readout of cell viability (z-scoreHeLa); type: cell-based, human; note: test concentration or dose not given here
Procedure, shortened: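 The viability surrogate was the count of fixed HeLa cells by flow cytometry, converted to z-scores against DMSO controls with values deviating two-fold excluded. Before counting, cells had been infected with MRSA for 1 h and cleared of extracellular bacteria with gentamicin. They were then exposed overnight to kinase inhibitors in triplicate.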

[1] = PKIS compounds raw data, MRSA-infected HeLa cells
[2] = Yes/No: effect without cell death
[3] = compound screen, MRSA-infected HeLa cells
[4] = PKIS compounds raw data, replicate 1, HeLa cell count
[5] = PKIS compounds raw data, replicate 2, HeLa cell count
[6] = PKIS compounds raw data, replicate 3, HeLa cell count
[7] = compound screen, HeLa cell count, mean of 3 replicates
[8] = compound screen, HeLa cell count, replicate 1
[9] = compound screen, HeLa cell count, replicate 2
[10] = compound screen, HeLa cell count, replicate 3
[11] = PKIS compound screen raw data, MRSA-infected HeLa cells
[12] = PKIS compound screen, MRSA-infected HeLa cells
[13] = PKIS compound screen, Yes/No call (effect without cell death)
[14] = PKIS compound screen, Yes/No call on z-scoreMRSA+
[15] = PKIS compound screen raw data, HeLa cell count, replicate 1
[16] = PKIS compound screen raw data, HeLa cell count, replicate 2
[17] = PKIS compound screen raw data, HeLa cell count, replicate 3
[18] = PKIS compound screen, HeLa cell count, mean of 3 replicates
[19] = PKIS compound screen, HeLa cell count, replicate 1
[20] = PKIS compound screen, HeLa cell count, replicate 2
[21] = PKIS compound screen, HeLa cell count, replicate 3
[22] = PKIS compound screen, Yes/No call on z-scoreHeLa
[23] = PKIS compound screen, Yes/No call

Structure (SMILES): Fc1cccc(COc2ccc(Nc3ncnc4cc(-c5ccc[nH]5)sc34)cc2Cl)c1 [GW693881A]
- %GFP+ rep 1 (intracellular MRSA; [1]): 15.5%
- %GFP+ rep 2 (intracellular MRSA; [1]): 14.8%
- %GFP+ rep 3 (intracellular MRSA; [1]): 13.6%
- effect (intracellular MRSA; Yes/No call from z-scoreMRSA+): No
- hit (intracellular MRSA; [2]): No
- z-scoreMRSA+ mean (intracellular MRSA; [3]): 0.17
- z-scoreMRSA+ rep 1 (intracellular MRSA; [3]): 0.75
- z-scoreMRSA+ rep 2 (intracellular MRSA; [3]): 0.44
- z-scoreMRSA+ rep 3 (intracellular MRSA; [3]): -0.68
- cell count rep 1 (HeLa cells; [4]): 5481
- cell count rep 2 (HeLa cells; [5]): 4577
- cell count rep 3 (HeLa cells; [6]): 7047
- cell death (HeLa cells; Yes/No call from z-scoreHeLa): No
- z-scoreHeLa mean (HeLa cells; [7]): 0.30
- z-scoreHeLa rep 1 (HeLa cells; [8]): 0.64
- z-scoreHeLa rep 2 (HeLa cells; [9]): 0.23
- z-scoreHeLa rep 3 (HeLa cells; [10]): 0.04

Structure (SMILES): O=C1Nc2ccc(C(=O)c3ccco3)cc2C1=Cc1cc(Cl)c(O)c(Cl)c1 [GW406108X]
- %GFP+ rep 1 (intracellular MRSA; [11]): 19.1%
- %GFP+ rep 2 (intracellular MRSA; [11]): 21.6%
- %GFP+ rep 3 (intracellular MRSA; [11]): 22.3%
- z-scoreMRSA+ mean (intracellular MRSA; [12]): 0.69
- z-scoreMRSA+ rep 1 (intracellular MRSA; [12]): 0.39
- z-scoreMRSA+ rep 2 (intracellular MRSA; [12]): 0.93
- z-scoreMRSA+ rep 3 (intracellular MRSA; [12]): 0.76
- hit (intracellular MRSA; [13]): No
- effect (intracellular MRSA; [14]): No
- cell count rep 1 (HeLa cells; [15]): 28408
- cell count rep 2 (HeLa cells; [16]): 39603
- cell count rep 3 (HeLa cells; [17]): 51964
- z-scoreHeLa mean (HeLa cells; [18]): 1.33
- z-scoreHeLa rep 1 (HeLa cells; [19]): 1.26
- z-scoreHeLa rep 2 (HeLa cells; [20]): 0.90
- z-scoreHeLa rep 3 (HeLa cells; [21]): 1.82
- cell death (HeLa cells; [22]): No

Structure (SMILES): CS(=O)(=O)CCNCc1cc(-c2cc3c(Nc4ccc(OCc5cccc(F)c5)c(Cl)c4)ncnc3s2)cs1 [GSK300014A]
- %GFP+ rep 1 (intracellular MRSA; [11]): 19.5%
- %GFP+ rep 2 (intracellular MRSA; [11]): 21.9%
- %GFP+ rep 3 (intracellular MRSA; [11]): 21.6%
- z-scoreMRSA+ mean (intracellular MRSA; [12]): 0.70
- z-scoreMRSA+ rep 1 (intracellular MRSA; [12]): 0.52
- z-scoreMRSA+ rep 2 (intracellular MRSA; [12]): 1.02
- z-scoreMRSA+ rep 3 (intracellular MRSA; [12]): 0.55
- hit (intracellular MRSA; [13]): No
- effect (intracellular MRSA; [14]): No
- cell count rep 1 (HeLa cells; [15]): 28943
- cell count rep 2 (HeLa cells; [16]): 38150
- cell count rep 3 (HeLa cells; [17]): 46044
- z-scoreHeLa mean (HeLa cells; [18]): 0.95
- z-scoreHeLa rep 1 (HeLa cells; [19]): 1.34
- z-scoreHeLa rep 2 (HeLa cells; [20]): 0.63
- z-scoreHeLa rep 3 (HeLa cells; [21]): 0.88
- cell death (HeLa cells; [22]): No

Structure (SMILES): CC(C)(C)c1ccc2nccc(Nc3cccc(O)c3)c2c1 [GW856795X]
- %GFP+ rep 1 (intracellular MRSA; [11]): 14.7%
- %GFP+ rep 2 (intracellular MRSA; [11]): 17.0%
- %GFP+ rep 3 (intracellular MRSA; [11]): 17.5%
- z-scoreMRSA+ mean (intracellular MRSA; [12]): -0.72
- z-scoreMRSA+ rep 1 (intracellular MRSA; [12]): -1.00
- z-scoreMRSA+ rep 2 (intracellular MRSA; [12]): -0.46
- z-scoreMRSA+ rep 3 (intracellular MRSA; [12]): -0.70
- hit (intracellular MRSA; [13]): No
- effect (intracellular MRSA; [14]): No
- cell count rep 1 (HeLa cells; [15]): 35017
- cell count rep 2 (HeLa cells; [16]): 26624
- cell count rep 3 (HeLa cells; [17]): 35940
- z-scoreHeLa mean (HeLa cells; [18]): 0.00181
- z-scoreHeLa rep 1 (HeLa cells; [19]): 2.26
- z-scoreHeLa rep 2 (HeLa cells; [20]): -1.52
- z-scoreHeLa rep 3 (HeLa cells; [21]): -0.73
- cell death (HeLa cells; [22]): No

Structure (SMILES): CC(C)c1ccc2c(c1)NC(=O)C2=NNc1ccc(S(N)(=O)=O)cc1 [GW300653X]
- %GFP+ rep 1 (intracellular MRSA; [1]): 12.5%
- %GFP+ rep 2 (intracellular MRSA; [1]): 13.7%
- %GFP+ rep 3 (intracellular MRSA; [1]): 13.3%
- effect (intracellular MRSA; Yes/No call from z-scoreMRSA+): No
- hit (intracellular MRSA; [2]): No
- z-scoreMRSA+ mean (intracellular MRSA; [3]): -0.30
- z-scoreMRSA+ rep 1 (intracellular MRSA; [3]): -0.21
- z-scoreMRSA+ rep 2 (intracellular MRSA; [3]): 0.07
- z-scoreMRSA+ rep 3 (intracellular MRSA; [3]): -0.77
- cell count rep 1 (HeLa cells; [4]): 3693
- cell count rep 2 (HeLa cells; [5]): 3535
- cell count rep 3 (HeLa cells; [6]): 5783
- cell death (HeLa cells; Yes/No call from z-scoreHeLa): No
- z-scoreHeLa mean (HeLa cells; [7]): -0.70
- z-scoreHeLa rep 1 (HeLa cells; [8]): -0.98
- z-scoreHeLa rep 2 (HeLa cells; [9]): -0.55
- z-scoreHeLa rep 3 (HeLa cells; [10]): -0.56

Structure (SMILES): Clc1ccc(CNc2nccc(-c3cnn4ncccc34)n2)cc1 [GW781673X]
- %GFP+ rep 1 (intracellular MRSA; [1]): 13.1%
- %GFP+ rep 2 (intracellular MRSA; [1]): 14.6%
- %GFP+ rep 3 (intracellular MRSA; [1]): 14.3%
- effect (intracellular MRSA; Yes/No call from z-scoreMRSA+): No
- hit (intracellular MRSA; [2]): No
- z-scoreMRSA+ mean (intracellular MRSA; [3]): -0.04
- z-scoreMRSA+ rep 1 (intracellular MRSA; [3]): -0.0227
- z-scoreMRSA+ rep 2 (intracellular MRSA; [3]): 0.37
- z-scoreMRSA+ rep 3 (intracellular MRSA; [3]): -0.47
- cell count rep 1 (HeLa cells; [4]): 3767
- cell count rep 2 (HeLa cells; [5]): 3267
- cell count rep 3 (HeLa cells; [6]): 5990
- cell death (HeLa cells; Yes/No call from z-scoreHeLa): No
- z-scoreHeLa mean (HeLa cells; human): -0.71
- z-scoreHeLa rep 1 (HeLa cells; human): -0.91
- z-scoreHeLa rep 2 (HeLa cells; human): -0.76
- z-scoreHeLa rep 3 (HeLa cells; human): -0.46

Structure (SMILES): Cc1c2ccc(N(C)c3ccnc(Nc4cccc(S(N)(=O)=O)c4)n3)cc2nn1Cc1ccccc1 [GW787226A]
- %GFP+ rep 1 (intracellular MRSA; [11]): 21.6%
- %GFP+ rep 2 (intracellular MRSA; [11]): 20.6%
- %GFP+ rep 3 (intracellular MRSA; [11]): 18.5%
- effect (intracellular MRSA; Yes/No call from z-scoreMRSA+): No
- hit (intracellular MRSA; [2]): No
- z-scoreMRSA+ mean (intracellular MRSA; [3]): -0.82
- z-scoreMRSA+ rep 1 (intracellular MRSA; [3]): -0.86
- z-scoreMRSA+ rep 2 (intracellular MRSA; [3]): -0.49
- z-scoreMRSA+ rep 3 (intracellular MRSA; [3]): -1.11
- cell count rep 1 (HeLa cells; [15]): 1356
- cell count rep 2 (HeLa cells; [16]): 1496
- cell count rep 3 (HeLa cells; [17]): 1271
- cell death (HeLa cells; Yes/No call from z-scoreHeLa): No
- z-scoreHeLa mean (HeLa cells; [7]): -2.28
- z-scoreHeLa rep 1 (HeLa cells; [8]): -2.16
- z-scoreHeLa rep 2 (HeLa cells; [9]): -2.16
- z-scoreHeLa rep 3 (HeLa cells; [10]): -2.51

Structure (SMILES): COc1cc(Nc2nccc(N3CCC(NC(=O)Nc4cccc(C(C)=O)c4)C3)n2)cc(OC)c1OC (stereo not drawn) [GSK1379753A]
- %GFP+ rep 1 (intracellular MRSA; [11]): 19.3%
- %GFP+ rep 2 (intracellular MRSA; [11]): 19.5%
- %GFP+ rep 3 (intracellular MRSA; [11]): 18.4%
- z-scoreMRSA+ mean (intracellular MRSA; [12]): -0.20
- z-scoreMRSA+ rep 1 (intracellular MRSA; [12]): 0.14
- z-scoreMRSA+ rep 2 (intracellular MRSA; [12]): 0.025
- z-scoreMRSA+ rep 3 (intracellular MRSA; [12]): -0.77
- hit (intracellular MRSA; [13]): No
- effect (intracellular MRSA; [14]): No
- cell count rep 1 (HeLa cells; [15]): 28035
- cell count rep 2 (HeLa cells; [16]): 28667
- cell count rep 3 (HeLa cells; [17]): 17453
- z-scoreHeLa mean (HeLa cells; [18]): -0.0237
- z-scoreHeLa rep 1 (HeLa cells; [19]): -0.37
- z-scoreHeLa rep 2 (HeLa cells; [20]): 0.58
- z-scoreHeLa rep 3 (HeLa cells; [21]): -0.29
- cell death (HeLa cells; [22]): No

Structure (SMILES): c1ccc(COc2ccc(Nc3ncnc4ccc(-c5ccco5)cc34)cc2)cc1 [GW284372X]
- effect (intracellular MRSA; [23]): No
- hit (intracellular MRSA; [13]): No
- z-scoreMRSA+ mean (intracellular MRSA; PKIS compound screen): -0.74
- z-scoreMRSA+ rep 1 (intracellular MRSA; PKIS compound screen): -0.66
- z-scoreMRSA+ rep 2 (intracellular MRSA; PKIS compound screen): -0.47
- z-scoreMRSA+ rep 3 (intracellular MRSA; PKIS compound screen): -1.09
- %GFP+ rep 1 (intracellular MRSA; [1]): 11.1%
- %GFP+ rep 2 (intracellular MRSA; [1]): 12.1%
- %GFP+ rep 3 (intracellular MRSA; [1]): 12.2%
- cell death (HeLa cells; [23]): No
- z-scoreHeLa mean (HeLa cells; PKIS compound screen, mean of 3 replicates): 0.48
- z-scoreHeLa rep 1 (HeLa cells; PKIS compound screen, replicate 1): -0.33
- z-scoreHeLa rep 2 (HeLa cells; PKIS compound screen, replicate 2): 0.65
- z-scoreHeLa rep 3 (HeLa cells; PKIS compound screen, replicate 3): 1.13
- cell count rep 1 (HeLa cells; [4]): 4410
- cell count rep 2 (HeLa cells; [5]): 5123
- cell count rep 3 (HeLa cells; [6]): 9333
